In ChEMBL document CHEMBL4811298, “Discovery of novel class of histone deacetylase inhibitors as potential anticancer agents” (Bioorg Med Chem, 2021):

Columns and labels:
MCF7 = experiment: Antiproliferative activity against human MCF7 cells assessed as reduction in cell viability incubated for 48 hrs by SRB assay; format: functional, cell-based; details: MCF7, 48 h
A549 = experiment: Antiproliferative activity against human A549 cells assessed as reduction in cell viability incubated for 48 hrs by SRB assay; format: functional, cell-based; details: A549, 48 h
[1] = target: Histone deacetylase 3/Nuclear receptor corepressor 2 (HDAC3/NCoR2) (Homo sapiens, UniProt O15379); experiment: Inhibition of C-terminal His-tagged human recombinant full length HDAC3 (1 to 428 residues)/N-terminal GST-tagged human recombinant NCOR2 (395 to 489 residues) expressed in baculovirus-infected Sf9 cells assessed as reduction in 7-amino-4-methylcoumarin release using fluorogenic HDAC substrate 3 measured every 5 mins by fluorescence based analysis
Histone deacetylase 9 = Histone deacetylase 9 (Homo sapiens, UniProt Q9UKV0); experiment: Inhibition of C-terminal His-tagged human HDAC9 (604 to 1066 residues) expressed in baculovirus-infected Sf9 cells assessed as reduction in 7-amino-4-methylcoumarin release measured every 5 mins by fluorescence based analysis
Histone deacetylase 4 = Histone deacetylase 4 (Homo sapiens, UniProt P56524); experiment: Inhibition of N-terminal GST-tagged/C-terminal His-tagged human recombinant HDAC4 (627 to 1084 residues) expressed in baculovirus-infected Sf9 cells assessed as reduction in 7-amino-4-methylcoumarin release measured every 5 mins by fluorescence based analysis
Histone deacetylase 5 = Histone deacetylase 5 (Homo sapiens, UniProt Q9UQL6); experiment: Inhibition of N-terminal GST-tagged human recombinant full length HDAC5 expressed in baculovirus-infected Sf9 cells assessed as reduction in 7-amino-4-methylcoumarin release measured every 5 mins by fluorescence based analysis
Histone deacetylase 5, sequence (Q9UQL6 whole entry): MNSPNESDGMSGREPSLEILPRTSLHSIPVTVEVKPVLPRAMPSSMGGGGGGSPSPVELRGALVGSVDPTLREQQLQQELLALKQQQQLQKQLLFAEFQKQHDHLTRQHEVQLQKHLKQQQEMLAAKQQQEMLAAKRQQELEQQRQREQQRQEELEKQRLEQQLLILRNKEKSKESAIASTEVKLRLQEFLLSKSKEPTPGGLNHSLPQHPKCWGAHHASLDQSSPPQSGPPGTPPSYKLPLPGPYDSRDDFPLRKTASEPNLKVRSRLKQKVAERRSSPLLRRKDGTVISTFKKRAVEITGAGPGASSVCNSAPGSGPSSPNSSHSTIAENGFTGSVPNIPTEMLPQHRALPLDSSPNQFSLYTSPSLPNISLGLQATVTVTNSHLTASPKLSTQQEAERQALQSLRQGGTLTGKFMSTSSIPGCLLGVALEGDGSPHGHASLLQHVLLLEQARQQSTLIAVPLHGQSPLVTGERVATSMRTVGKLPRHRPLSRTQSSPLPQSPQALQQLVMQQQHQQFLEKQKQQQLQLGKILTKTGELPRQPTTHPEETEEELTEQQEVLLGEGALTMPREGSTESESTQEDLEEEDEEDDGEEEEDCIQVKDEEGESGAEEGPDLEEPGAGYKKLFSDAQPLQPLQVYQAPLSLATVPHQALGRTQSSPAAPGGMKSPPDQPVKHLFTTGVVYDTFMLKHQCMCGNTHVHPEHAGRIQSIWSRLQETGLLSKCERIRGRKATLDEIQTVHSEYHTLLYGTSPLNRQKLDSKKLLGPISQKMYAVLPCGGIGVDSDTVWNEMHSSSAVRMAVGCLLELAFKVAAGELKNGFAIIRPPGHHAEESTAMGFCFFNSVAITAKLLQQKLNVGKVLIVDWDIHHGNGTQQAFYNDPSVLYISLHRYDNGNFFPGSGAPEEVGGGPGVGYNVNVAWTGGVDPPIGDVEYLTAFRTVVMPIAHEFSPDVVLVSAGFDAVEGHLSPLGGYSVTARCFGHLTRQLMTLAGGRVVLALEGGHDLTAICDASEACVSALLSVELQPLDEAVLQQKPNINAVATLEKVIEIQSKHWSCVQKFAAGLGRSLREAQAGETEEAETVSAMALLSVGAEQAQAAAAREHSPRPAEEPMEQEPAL

Histone deacetylase 9, sequence (Q9UKV0 whole entry, the tested form may be a part): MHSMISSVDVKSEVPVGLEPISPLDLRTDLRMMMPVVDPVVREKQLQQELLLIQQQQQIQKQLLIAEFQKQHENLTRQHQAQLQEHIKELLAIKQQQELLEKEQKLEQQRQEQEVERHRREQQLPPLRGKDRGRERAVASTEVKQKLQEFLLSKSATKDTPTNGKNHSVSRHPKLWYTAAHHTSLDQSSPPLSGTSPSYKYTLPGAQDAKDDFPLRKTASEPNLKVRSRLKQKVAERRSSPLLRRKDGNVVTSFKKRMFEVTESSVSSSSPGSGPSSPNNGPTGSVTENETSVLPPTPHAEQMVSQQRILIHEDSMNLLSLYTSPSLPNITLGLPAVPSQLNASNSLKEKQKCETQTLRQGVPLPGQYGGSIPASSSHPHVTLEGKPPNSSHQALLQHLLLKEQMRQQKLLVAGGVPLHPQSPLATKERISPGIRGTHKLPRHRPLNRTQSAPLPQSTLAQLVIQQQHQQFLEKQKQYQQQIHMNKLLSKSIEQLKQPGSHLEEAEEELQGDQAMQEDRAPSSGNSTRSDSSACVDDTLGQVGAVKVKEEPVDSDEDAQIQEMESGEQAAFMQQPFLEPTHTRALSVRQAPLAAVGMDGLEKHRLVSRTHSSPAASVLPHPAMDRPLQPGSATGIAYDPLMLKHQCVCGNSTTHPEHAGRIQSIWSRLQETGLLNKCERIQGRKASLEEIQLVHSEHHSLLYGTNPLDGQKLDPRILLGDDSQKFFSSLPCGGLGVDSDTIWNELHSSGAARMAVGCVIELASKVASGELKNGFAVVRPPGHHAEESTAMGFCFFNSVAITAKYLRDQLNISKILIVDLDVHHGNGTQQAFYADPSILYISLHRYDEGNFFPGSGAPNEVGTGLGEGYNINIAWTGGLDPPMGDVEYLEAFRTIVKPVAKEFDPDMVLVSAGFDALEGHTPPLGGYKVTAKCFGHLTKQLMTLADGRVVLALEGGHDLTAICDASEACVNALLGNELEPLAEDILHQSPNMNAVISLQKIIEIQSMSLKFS
Histone deacetylase 4, sequence (P56524 whole entry, the tested form may be a part): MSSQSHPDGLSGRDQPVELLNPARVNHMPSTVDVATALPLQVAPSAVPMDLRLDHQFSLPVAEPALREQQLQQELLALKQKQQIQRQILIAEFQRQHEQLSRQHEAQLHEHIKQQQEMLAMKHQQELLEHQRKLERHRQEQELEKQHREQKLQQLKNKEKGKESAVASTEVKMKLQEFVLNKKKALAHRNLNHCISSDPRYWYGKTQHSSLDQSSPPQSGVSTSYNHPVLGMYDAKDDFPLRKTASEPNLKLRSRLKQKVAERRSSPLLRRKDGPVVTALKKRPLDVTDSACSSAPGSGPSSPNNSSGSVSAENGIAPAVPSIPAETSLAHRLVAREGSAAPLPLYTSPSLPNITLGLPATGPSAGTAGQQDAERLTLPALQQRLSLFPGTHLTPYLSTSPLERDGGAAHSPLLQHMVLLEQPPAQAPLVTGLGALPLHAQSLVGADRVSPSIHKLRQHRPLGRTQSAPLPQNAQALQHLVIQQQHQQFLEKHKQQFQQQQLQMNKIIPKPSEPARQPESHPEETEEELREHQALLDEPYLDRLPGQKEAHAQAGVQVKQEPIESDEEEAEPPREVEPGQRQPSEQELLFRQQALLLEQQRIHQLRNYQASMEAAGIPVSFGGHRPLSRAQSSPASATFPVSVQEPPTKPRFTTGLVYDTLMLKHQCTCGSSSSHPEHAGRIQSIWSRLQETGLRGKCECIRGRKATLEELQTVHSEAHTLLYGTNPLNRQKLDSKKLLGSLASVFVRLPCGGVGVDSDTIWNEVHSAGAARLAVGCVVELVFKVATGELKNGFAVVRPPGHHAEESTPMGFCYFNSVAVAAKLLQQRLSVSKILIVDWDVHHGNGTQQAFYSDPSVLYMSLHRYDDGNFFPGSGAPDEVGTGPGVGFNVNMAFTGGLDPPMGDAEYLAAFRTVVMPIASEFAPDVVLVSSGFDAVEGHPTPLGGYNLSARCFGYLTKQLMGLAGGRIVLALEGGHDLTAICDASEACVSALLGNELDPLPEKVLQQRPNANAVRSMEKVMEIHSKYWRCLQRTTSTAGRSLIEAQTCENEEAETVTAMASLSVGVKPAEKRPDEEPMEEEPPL

IC50 (MCF7)	IC50 (A549)	IC50 [1]	IC50 (Histone deacetylase 9)	IC50 (Histone deacetylase 4)	IC50 (Histone deacetylase 5)	SMILES
38 nM	90 nM					COc1cccc2c1C(=O)c1c(O)c3c(c(O)c1C2=O)C[C@@](O)(C(=O)CO)C[C@@H]3O[C@H]1C[C@H](N)[C@H](O)[C@H](C)O1 [DOXORUBICIN]
		1090 nM	48 nM	19 nM	61 nM	O=C(NC1CCN(Cc2ccccc2)C1)c1ccc(-c2noc(C(F)(F)F)n2)cc1 (stereo unspecified)
